Experimental data: patent US7071190B2, “Inhibitors to tubulin polymerization” (Rigel Pharmaceuticals, Inc., priority 2002, dated 2006)
Entries after “also recorded” stand apart in the source; their conditions may differ.

Assays:
A549 (lung) tumors = assay: A549 (lung) human tumor xenograft in nude mice; assay type: in vivo, NCr nude (nu/nu) female mice; conditions: for Increase in tumor volume at 35 days normalized to tumor volume at start of drug treatment: vehicle approximately 7-fold; for %T/C (mean tumor volume treated vs. control ×100): A549 xenografts
From the text: (§1) A nude mouse/human carcinoma model was used to examine the effect of tubulin inhibitors on tumor growth and animal survival. Groups of immune deficient (nude) mice were implanted subcutaneously with suspensions of the human tumor lines A549 (lung) and SW480 (colon). When palpable tumors appeared and were of a preselected volume (approximately 40–150 mm^3), animals were subdivided into various treatment groups such that the variation in mean tumor volume of each group was within 10%. The animals were then treated daily with either control vehicle or Compound 1 administered by intraperitonel injection. Twice weekly, the volume of the tumors in each animal in each group was measured to gather information on tumor growth (volume) as a function of time. Systemic toxicity was assessed by measuring individual animal body weights, and toxicity was evaluated by examination of differences in body weight gain as a function of time. Tumor volumes and body weights were monitored for up to 35 days after the beginning of treatment.
Cell Lines: Human tumor lines A549 (lung) and SW480 (colon) were grown in cell culture medium (F-11) containing 10% Fetal Bovine Serum (FBS). The cells were kept at 37° C. in a humidified 5% CO2/air incubator. Antibiotics were not added to the medium.
NCr nude (nu/nu) female mice, age 3–4 weeks, were purchased from Taconic (Germantown, N.Y.). The animals were housed ten per cage in sterile filter-topped cages in ventilated cage racks and Microisolator™ cages. Upon arrival, they were quarantined for at least four working days before use. Temperature was maintained at 72±5° F. (19–24° C.) and relative humidity at 35–70%, and a 12-hour light/dark cycle was used. The mice were fed sterile, autoclavable, certified, Purina rodent chow ad libitum. Drinking water was also autoclaved.
After the animals were released from quarantine, the mice were injected subcutaneously in the right flank with either 5×10^6 A549 cells or 5×10^6 SW480 cells in complete medium at an injection volume of 0.1 ml. Tumor dimensions and body weights were measured two times per week. Vernier calipers were used to measure tumors in two planes, and tumor volume (V) was calculated as follows: V=(xy^2)/2,
The test articles were administered intraperitoneally generally at a dose level of 10 mg/kg. When the solubility of a molecule of the invention was relatively low, we used relatively higher levels of organic co-solvents for preparation of the dosing solution. The “vehicle” of the invention comprised of 7.1% ethanol/35.8% PEG400/57.1% phosphate buffer (v/v/v).
When the tumor volumes reached a predetermined size (mean tumor volume between about 40–150 mm^3), animals were added randomly to treatment groups of 12 mice each as follows: Animals were treated daily with the vehicle or Compound 1 (10 mg/kg), or with the positive control drug (Taxol) administered by intraperitoneal injection at the maximum tolerated dose of 20 mg/kg every fourth day, on Days 1, 4, 7, and 10.
The tumor volumes of the animals were monitored for evidence of shrinkage or growth delay for a period of up to 35 days after the start of treatment. Response to treatment was measured in two ways, depending on the tumor response to treatment. The first was the optimum T/C (%), calculated as follows: For each day the tumors were measured, the changes in median tumor volume (V) for each treated (T) and control (C) group were determined by subtracting the […] tumor volume on the first day of treatment (Day 0) from the median tumor volume on the specific observation day. These values were used to express a percent difference in size, [% T/C=(T/C)×100]. The minimum value is designated the optimum response to treatment. A value of 42% or less is considered active by National Cancer Institute (NCI) standards. […]

A549 cells = assay: Bromodeoxyuridine (BrdU) proliferation assay; assay type: cell-based, human
Description: In order to determine the antiproliferative activity of microtubule inhibitors, A549 cells were plated in 96 well plates at 2000 cells/well 24 hours prior to the addition of a compound of the invention in 80 ul growth media (F12K, 10% FBS, Pen/Strep). Prior to addition to cells, compounds were solubilized in 100% DMSO to 5 mM and serially diluted in 6 semi-log steps in 100% DMSO. The diluted compounds were added to cells by two 15.8-fold dilution steps, the first being a dilution into a 23% ethanol/H2O mixture and the second being a dilution into growth media. Finally, these dilutions were followed by a 1:1 dilution onto cells. The resulting final solvent concentration was 0.2% DMSO/0.75% ethanol. Compounds were tested at final concentrations of 10, 3, 1, 0.3, 0.1 and 0.03 uM. Forty-eight hours after the addition of compound, the effects on cellular proliferation were measured using a cell proliferation BrdU ELISA (Roche Molecular Biochemicals, Cat.#1 669 915).

SW480 tumors = assay: SW480 (colon) human tumor xenograft in nude mice; assay type: in vivo, NCr nude (nu/nu) female mice; conditions: 10 mg/kg daily intraperitoneal
From the text: as §1, with “treatment. […]” for “treatment.”
After the animals were released from quarantine, the mice were injected subcutaneously in the right flank with either 5×10^6 A549 cells or 5×10^6 SW480 cells in complete medium at an injection volume of 0.1 ml. Tumor dimensions and body weights were measured two times per week. […]

[1] = system: MAP-rich tubulin protein from bovine brain; assay: Tubulin polymerization turbidity assay (A340 over time); assay type: biochemical; conditions: 10 μM compound, FIG. 1 (a), (b)
Description: FIG. 1. Tubulin polymerization inhibitory activity of the compounds of the invention was assayed by following the turbidity of a tubulin-containing solution over time. Polymerization of tubulin generates microtubules, the presence of which increases the absorbance of the assay solution over time. Effective inhibition manifests as a reduction of rate of absorbance increase at 340 nanometers. (a) 10 μM of compounds 19, 39, 43, 54 and 62, as well as 10 μM nocodazole as a positive control and DMSO as a negative control. (b) 10 μM of compounds 1, 88, 95, and 54, as well as 10 μM as well a positive controls 1 and 2 and DMSO as a negative control. (c) 0.4, 2.0 and 10 μM compound 54 versus 0.4, 2.0 and 10 μM nocodazole as a positive control and DMSO as a negative control.
Measurement of the tubulin polymerization can be achieved using known methodologies. For example, assays for tubulin polymerization may be performed using a kit from Cytoskeleton (Denver, Colo.) and as described by Tahir, S. K., et al, (2001) Cancer Res., 61:5480–5.
The assay measures tubulin polymerization as an increase in turbidity (A340) over time. Assays for tubulin polymerization were performed using a kit from Cytoskeleton (Denver, Colo.) and as described by Tahir, S. K., et al, (2001) Cancer Res., 61: 5480–5, incorporated herein by reference, and as described below.
To determine the ability of the compounds to inhibit microtubule polymerization in vitro, the following protocol was followed: (i) 70 μl ice-cold MAP-rich tubulin protein from bovine brain (1.5 mg/ml final concentration) was added to polymerization buffer (80 mM PIPES pH6.8, 1 mM EGTA, 1 mM MgCl2, 1 mM GTP) in a quartz microcuvette; (ii) 0.7 μl of DMSO or 100X stock of control (nocodazole) or test compound (thienopyrimidine) in DMSO were added to the cuvette; (iii) the contents were mixed by pipefting gently; (iv) the polymerization reaction was initiated by placing the cuvette in pre-warmed (37° C.) cuvette holder in Beckman spectrophotometer; (v) the absorbance was monitored at 340 nm at 30 second intervals for 20 minutes. Tubulin polymerization result in increased turbidity in the reaction solution, which is registered as an increase in absorbance at 340 nm. Inhibitors of tubulin polymerization are detected by a reduction in the rate, the initial slope, and/or extent of the turbidity change (i.e., max. absorbance at 340 nm) in plots of ΔA340 versus time.

SMILES	Increase in tumor volume at 35 days normalized to tumor volume at start of drug treatment (A549 (lung) tumors; A549 xenograft, 20 mg/kg intraperitoneal every fourth day (Days 1, 4, 7, 10)) [fold]	%T/C (mean tumor volume treated vs. control ×100) (A549 (lung) tumors; 20 mg/kg intraperitoneal every fourth day) [%]	IC50 (A549 cells; Homo sapiens, A549, 48 h, BrdU ELISA 48 hours after addition of compound, tested 0.03-10 uM, cell line not given (A549 method; SW-480 and MDA-MB-231 also used), read-out: Assay Result (IC50μM)) [µM]	Activity ranking: most active compounds of the invention (A549 cells; antiproliferative activity)	Activity ranking: particularly active examples of the compounds of the invention (A549 cells; antiproliferative activity)	Effect on tumor size (SW480 tumors)	Tumor volume (SW480 tumors; controls 677.9±574.3 mm^3) [mm^3]	Increase in tumor volume at 35 days normalized to tumor volume at start of drug treatment (A549 (lung) tumors; A549 xenograft, 10 mg/kg daily intraperitoneal) [fold]	Mean tumor volume after 27 days of treatment (A549 (lung) tumors; A549 xenograft, 10 mg/kg daily, vehicle control 346.9±164.7 mm^3) [mm^3]	Effect on tumor growth (A549 (lung) tumors; A549 xenograft, Compound 1 10 mg/kg daily intraperitoneal, 10 mg/kg)	%T/C (mean tumor volume treated vs. control ×100) (A549 (lung) tumors; 10 mg/kg daily intraperitoneal) [%]	Inhibition of tubulin polymerization (reduction of rate of absorbance increase at 340 nanometers) [1]
CC(=O)O[C@H]1C(=O)[C@@]2(C)[C@H]([C@H](OC(=O)c3ccccc3)[C@]3(O)C[C@H](OC(=O)[C@H](O)[C@@H](NC(=O)c4ccccc4)c4ccccc4)C(C)=C1C3(C)C)[C@]1(OC(C)=O)CO[C@@H]1C[C@@H]2O [Taxol, reference compound]	4	59										
S=C(NNc1ncnc2cc(-c3ccccc3)sc12)Nc1ccccc1 [Compound 1]			0.664	most active	particularly active	did not result in a reduced tumor size	647.7±500.6	4	223.8±164.1	slowed tumor growth substantially; also recorded: substantial suppression of tumor growth	65	Inhibition activity is observed
